Here are results for 20 compounds from patent US20250312499A1, “KISSPEPTIN RECEPTOR (KISS1R) TARGETED THERAPEUTICS AND USES THEREOF” (priority 2024, published 2025).

Numbered stars: 1 amine (or outer) side, 2 acyl side, 3 side chain; on linkers, the order of the positions; unused ones are H or OH. Square brackets hold non-standard residues; d marks the D form. Peptide text beside a SMILES is read from it. * marks the point of attachment. DOTA = O=C(O)CN1CCN(CC(=O)O)CCN(CC(=O)*)CCN(CC(=O)O)CC1; Gly(N-(3-F-4-Me-benzyl)) = Cc1ccc(CNCC(=O)*)cc1F; Propanoyl(3-(MeO(CH2CH2O)2)) = COCCOCCOCCC(=O)*; Api(1-amidino) = N=C(N)N1CCC(N)(C(=O)O)CC1; Bip = N[C@@H](Cc1ccc(-c2ccccc2)cc1)C(=O)O; HO(CH2CH2O)2CH2CH2CO = O=C(CCOCCOCCO)*; X9 = O=C(CCOCCOCCOCCOCCOCCOCCOCCOCCO)*; d2Nal = N[C@H](Cc1ccc2ccccc2c1)C(=O)O; X1 = O=C(CN1CCC(N[*:1])CC1)[*:2]; 4Pal = N[C@@H](Cc1ccncc1)C(=O)O; Cha = N[C@@H](CC1CCCCC1)C(=O)O; 4Amb = NCc1ccc(C(=O)O)cc1; Api = NC1(C(=O)O)CCNCC1; Ahx = NCCCCCC(=O)O; azaGly = NNC(=O)O

The target of this assay is human kisspeptin receptor (Homo sapiens (Human), UniProt Q969F8). As to the kind of experiment: Human KISS1R binding assay (membrane competition binding). The conditions noted are these: 90 min at room temperature; competition with 0.2 nM [125I]-metastin (45-54); Flp-In T-Rex 293 kisspeptin membranes; metal complexes nonradioactive Ga, In, Lu; read-out: hKiSSR Binding Ki (90 min). Summed up: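 Radioligand competition: 0.2 nM [125I]-metastin (45-54) displaced by test ligand (usually 0–10,000 nM) over 90 min at room temperature, pH 7.4 buffer with 0.1% BSA. Receptor source is crude membrane (5–10 μg) from tetracycline-induced Flp-In T-Rex 293 cells. Bound label filtered and counted; Ki from non-linear regression.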
Chain of human kisspeptin receptor (Q969F8 whole entry): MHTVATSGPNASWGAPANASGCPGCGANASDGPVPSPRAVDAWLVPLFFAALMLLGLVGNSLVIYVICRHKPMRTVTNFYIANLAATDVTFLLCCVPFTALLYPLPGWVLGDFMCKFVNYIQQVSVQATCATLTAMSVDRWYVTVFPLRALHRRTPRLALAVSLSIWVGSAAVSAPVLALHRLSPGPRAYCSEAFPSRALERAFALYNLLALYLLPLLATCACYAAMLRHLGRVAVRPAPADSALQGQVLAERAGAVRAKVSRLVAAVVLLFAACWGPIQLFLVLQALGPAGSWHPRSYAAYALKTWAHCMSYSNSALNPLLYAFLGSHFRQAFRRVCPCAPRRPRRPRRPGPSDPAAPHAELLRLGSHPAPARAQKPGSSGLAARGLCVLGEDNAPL
`Cc1ccc(CNCC(=O)N2CCC(NC(=O)[C@H](CC(C)C)NC(=O)NNC(=O)[C@H](Cc3ccccc3)NC(=O)CN3CCC(NC(=O)CN4CCN(CC(=O)O)CCN(CC(=O)O)CCN(CC(=O)O)CC4)CC3)(C(=O)N[C@@H](Cc3ccccc3)C(N)=O)CC2)cc1F` [Compound 245] ({DOTA}-[X1]F[azaGly]L[Api](Gly(N-(3-F-4-Me-benzyl)))F-NH2): the Ki (usually the equilibrium dissociation constant of an inhibitor or competing ligand from its target) is below 10 nM.

Regarding `Cc1ccc(CNCC(=O)N2CCC(NC(=O)[C@H](CC(C)C)NC(=O)NNC(=O)[C@H](Cc3ccccc3)NC(=O)CN3CCC(NC(=O)CN4CCN(CC(=O)O)CCN(CC(=O)O)CCN(CC(=O)O)CC4)CC3)(C(=O)N[C@@H](Cc3ccncc3)C(N)=O)CC2)cc1F` [Compound 246] ({DOTA}-[X1]F[azaGly]L[Api](Gly(N-(3-F-4-Me-benzyl)))[4Pal]-NH2), the inhibition constant (Ki) was in the range of 10 to 100 nM.

As to `Cc1ccc(CNCC(=O)N2CCC(NC(=O)[C@H](CC(C)C)NC(=O)NNC(=O)[C@H](Cc3ccccc3)NC(=O)CN3CCC(NC(=O)CN4CCN(CC(=O)O)CCN(CC(=O)O)CCN(CC(=O)O)CC4)CC3)(C(=O)N[C@@H](Cc3ccc(O)cc3)C(N)=O)CC2)cc1F` [Compound 247] ({DOTA}-[X1]F[azaGly]L[Api](Gly(N-(3-F-4-Me-benzyl)))Y-NH2), the Ki is below 10 nM.

With `Cc1ccc(CNCC(=O)N2CCC(NC(=O)[C@H](CC(C)C)NC(=O)NNC(=O)[C@H](Cc3ccccc3)NC(=O)CN3CCC(NC(=O)CN4CCN(CC(=O)O)CCN(CC(=O)O)CCN(CC(=O)O)CC4)CC3)(C(=O)N[C@@H](Cc3c[nH]cn3)C(N)=O)CC2)cc1F` [Compound 248] ({DOTA}-[X1]F[azaGly]L[Api](Gly(N-(3-F-4-Me-benzyl)))H-NH2), the inhibition constant (Ki) was above 100 nM.

As for `Cc1ccc(CNCC(=O)N2CCC(NC(=O)[C@H](CC(C)C)NC(=O)NNC(=O)[C@H](Cc3ccccc3)NC(=O)[C@@H](NC(=O)[C@H](CC(N)=O)NC(=O)CN3CCC(NC(=O)CN4CCN(CC(=O)O)CCN(CC(=O)O)CCN(CC(=O)O)CC4)CC3)[C@@H](C)O)(C(=O)N[C@@H](Cc3ccc(O)cc3)C(N)=O)CC2)cc1F` [Compound 249] ({DOTA}-[X1]NTF[azaGly]L[Api](Gly(N-(3-F-4-Me-benzyl)))Y-NH2), the Ki was below 10 nM.

As to `Cc1ccc(CNCC(=O)N2CCC(NC(=O)[C@H](CC(C)C)NC(=O)NNC(=O)[C@H](Cc3ccccc3)NC(=O)[C@@H](NC(=O)CN3CCC(NC(=O)CN4CCN(CC(=O)O)CCN(CC(=O)O)CCN(CC(=O)O)CC4)CC3)[C@@H](C)O)(C(=O)N[C@@H](Cc3ccc(O)cc3)C(N)=O)CC2)cc1F` [Compound 250] ({DOTA}-[X1]TF[azaGly]L[Api](Gly(N-(3-F-4-Me-benzyl)))Y-NH2), the inhibition constant (Ki) was below 10 nM.

As to `Cc1ccc(CNCC(=O)N2CCC(NC(=O)[C@H](CC(C)C)NC(=O)NNC(=O)[C@H](Cc3ccccc3)NC(=O)[C@@H](NC(=O)[C@H](CCCCNC(=O)CN3CCN(CC(=O)O)CCN(CC(=O)O)CCN(CC(=O)O)CC3)NC(=O)CCOCCOCCO)[C@@H](C)O)(C(=O)N[C@@H](Cc3ccncc3)C(N)=O)CC2)cc1F` [Compound 251] ({HO(CH2CH2O)2CH2CH2CO}-K(DOTA)TF[azaGly]L[Api](Gly(N-(3-F-4-Me-benzyl)))[4Pal]-NH2), the Ki was above 100 nM.

Consider `Cc1ccc(CNCC(=O)N2CCC(NC(=O)[C@H](CC(C)C)NC(=O)NNC(=O)[C@H](Cc3ccccc3)NC(=O)[C@@H](NC(=O)[C@H](CCC(=O)O)NC(=O)[C@H](CCCCNC(=O)CN3CCN(CC(=O)O)CCN(CC(=O)O)CCN(CC(=O)O)CC3)NC(=O)CCOCCOCCO)[C@@H](C)O)(C(=O)N[C@@H](Cc3ccncc3)C(N)=O)CC2)cc1F` [Compound 252] ({HO(CH2CH2O)2CH2CH2CO}-K(DOTA)ETF[azaGly]L[Api](Gly(N-(3-F-4-Me-benzyl)))[4Pal]-NH2), for which the Ki was above 100 nM.

As for `Cc1ccc(CNCC(=O)N2CCC(NC(=O)[C@H](CC(C)C)NC(=O)NNC(=O)[C@H](Cc3ccccc3)NC(=O)[C@@H](NC(=O)[C@H](CC(N)=O)NC(=O)[C@H](CCCCNC(=O)CN3CCN(CC(=O)O)CCN(CC(=O)O)CCN(CC(=O)O)CC3)NC(=O)CCOCCOCCO)[C@@H](C)O)(C(=O)N[C@@H](Cc3ccncc3)C(N)=O)CC2)cc1F` [Compound 253] ({HO(CH2CH2O)2CH2CH2CO}-K(DOTA)NTF[azaGly]L[Api](Gly(N-(3-F-4-Me-benzyl)))[4Pal]-NH2), the inhibitory constant (Ki) is below 10 nM.

For `Cc1ccc(CNCC(=O)N2CCC(NC(=O)[C@H](CC(C)C)NC(=O)NNC(=O)[C@H](Cc3ccccc3)NC(=O)[C@@H](NC(=O)[C@H](CC(N)=O)NC(=O)[C@@H](CCCCNC(=O)CN3CCN(CC(=O)O)CCN(CC(=O)O)CCN(CC(=O)O)CC3)NC(=O)CCOCCOCCO)[C@@H](C)O)(C(=O)N[C@@H](Cc3ccncc3)C(N)=O)CC2)cc1F` [Compound 254] ({HO(CH2CH2O)2CH2CH2CO}-[dK](DOTA)NTF[azaGly]L[Api](Gly(N-(3-F-4-Me-benzyl)))[4Pal]-NH2), the inhibition constant Ki was below 10 nM.

As for `COCCOCCOCCC(=O)N[C@@H](CCCCNC(=O)CN1CCN(CC(=O)O)CCN(CC(=O)O)CCN(CC(=O)O)CC1)C(=O)N[C@@H](CC(N)=O)C(=O)N[C@H](C(=O)N[C@@H](Cc1ccccc1)C(=O)NNC(=O)N[C@@H](CC(C)C)C(=O)NC1(C(=O)N[C@@H](Cc2ccncc2)C(N)=O)CCN(C(=O)CNCc2ccc(C)c(F)c2)CC1)[C@@H](C)O` [Compound 255] ({Propanoyl(3-(MeO(CH2CH2O)2))}-K(DOTA)NTF[azaGly]L[Api](Gly(N-(3-F-4-Me-benzyl)))[4Pal]-NH2), the Ki was below 10 nM.

Consider `Cc1ccc(CNCC(=O)N2CCC(NC(=O)[C@H](CC(C)C)NC(=O)NNC(=O)[C@H](Cc3ccccc3)NC(=O)[C@@H](NC(=O)[C@H](CC(N)=O)NC(=O)[C@H](CCCCNC(=O)CN3CCN(CC(=O)O)CCN(CC(=O)O)CCN(CC(=O)O)CC3)NC(=O)CCOCCOCCOCCOCCOCCOCCOCCOCCO)[C@@H](C)O)(C(=O)N[C@@H](Cc3ccncc3)C(N)=O)CC2)cc1F` [Compound 256] (X9-K(DOTA)NTF[azaGly]L[Api](Gly(N-(3-F-4-Me-benzyl)))[4Pal]-NH2), for which the inhibition constant (Ki) was below 10 nM.

In the case of `Cc1ccc(CNCC(=O)N2CCC(NC(=O)[C@H](CC(C)C)NC(=O)NNC(=O)[C@H](Cc3ccncc3)NC(=O)[C@@H](NC(=O)[C@H](CC(N)=O)NC(=O)CN3CCC(NC(=O)CN4CCN(CC(=O)O)CCN(CC(=O)O)CCN(CC(=O)O)CC4)CC3)[C@@H](C)O)(C(=O)N[C@@H](Cc3ccncc3)C(N)=O)CC2)cc1F` [Compound 258] ({DOTA}-[X1]NT[4Pal][azaGly]L[Api](Gly(N-(3-F-4-Me-benzyl)))[4Pal]-NH2), the inhibition constant Ki was above 100 nM.

On to `Cc1ccc(CNCC(=O)N2CCC(NC(=O)[C@H](CC(C)C)NC(=O)NNC(=O)[C@H](Cc3ccncc3)NC(=O)[C@@H](NC(=O)[C@H](CC(N)=O)NC(=O)c3ccc(CNC(=O)CN4CCN(CC(=O)O)CCN(CC(=O)O)CCN(CC(=O)O)CC4)cc3)[C@@H](C)O)(C(=O)N[C@@H](Cc3ccncc3)C(N)=O)CC2)cc1F` [Compound 259] ({DOTA-4Amb}-NT[4Pal][azaGly]L[Api](Gly(N-(3-F-4-Me-benzyl)))[4Pal]-NH2), for which the inhibition constant Ki is 10 to 100 nM.

On to `Cc1ccc(CNCC(=O)N2CCC(NC(=O)[C@@H](CC(C)C)NC(=O)NNC(=O)[C@H](Cc3ccccc3)NC(=O)c3ccc(CNC(=O)CN4CCN(CC(=O)O)CCN(CC(=O)O)CCN(CC(=O)O)CC4)cc3)(C(=O)N[C@@H](Cc3c[nH]c4ccccc34)C(N)=O)CC2)cc1F` [Compound 260] ({DOTA-4Amb}-F[azaGly][dL][Api](Gly(N-(3-F-4-Me-benzyl)))W-NH2), for which the inhibition constant Ki lay within 10 to 100 nM.

For the compound `Cc1ccc(CNCC(=O)N2CCC(NC(=O)[C@H](CC(C)C)NC(=O)NNC(=O)[C@H](CC3CCCCC3)NC(=O)c3ccc(CNC(=O)CN4CCN(CC(=O)O)CCN(CC(=O)O)CCN(CC(=O)O)CC4)cc3)(C(=O)N[C@@H](Cc3c[nH]c4ccccc34)C(N)=O)CC2)cc1F` [Compound 261] ({DOTA-4Amb}-[Cha][azaGly]L[Api](Gly(N-(3-F-4-Me-benzyl)))W-NH2), the inhibition constant Ki is below 10 nM.

As to `COCCOCCOCCC(=O)N[C@@H](CCCCNC(=O)CN1CCN(CC(=O)O)CCN(CC(=O)O)CCN(CC(=O)O)CC1)C(=O)N[C@@H](CC(N)=O)C(=O)N[C@H](C(=O)N[C@@H](Cc1ccccc1)C(=O)NNC(=O)N[C@@H](CC(C)C)C(=O)NC1(C(=O)N[C@@H](Cc2c[nH]c3ccccc23)C(N)=O)CCN(C(=N)N)CC1)[C@@H](C)O` [Compound 264] ({Propanoyl(3-(MeO(CH2CH2O)2))}-K(DOTA)NTF[azaGly]L[Api(1-amidino)]W-NH2), the inhibitory constant (Ki) was below 10 nM.

In the case of `CC(C)C[C@H](NC(=O)NNC(=O)[C@H](Cc1ccccc1)NC(=O)[C@@H](NC(=O)[C@H](CC(N)=O)NC(=O)[C@@H](Cc1ccc2ccccc2c1)NC(=O)[C@@H](Cc1ccc(O)cc1)NC(=O)CCCCCNC(=O)CN1CCN(CC(=O)O)CCN(CC(=O)O)CCN(CC(=O)O)CC1)[C@@H](C)O)C(=O)NC1(C(=O)N[C@@H](Cc2c[nH]c3ccccc23)C(N)=O)CCN(C(=N)N)CC1` [Compound 269] ({DOTA-Ahx}-[dY][d2Nal]NTF[azaGly]L[Api(1-amidino)]W-NH2), the inhibition constant Ki is below 10 nM.

For the compound `CC(C)C[C@H](NC(=O)NNC(=O)[C@H](Cc1ccccc1)NC(=O)[C@@H](NC(=O)[C@H](CC(N)=O)NC(=O)[C@@H](Cc1c[nH]c2ccccc12)NC(=O)[C@@H](Cc1ccc(O)cc1)NC(=O)c1ccc(CNC(=O)CCCCCNC(=O)CN2CCN(CC(=O)O)CCN(CC(=O)O)CCN(CC(=O)O)CC2)cc1)[C@@H](C)O)C(=O)NC1(C(=O)N[C@@H](Cc2c[nH]c3ccccc23)C(N)=O)CCN(C(=N)N)CC1` [Compound 270] ({DOTA-Ahx-4Amb}-[dY][dW]NTF[azaGly]L[Api(1-amidino)]W-NH2), the Ki is below 10 nM.

With `CC(C)C[C@H](NC(=O)NNC(=O)[C@H](Cc1ccc(-c2ccccc2)cc1)NC(=O)[C@@H](NC(=O)[C@H](CC(N)=O)NC(=O)[C@@H](Cc1c[nH]c2ccccc12)NC(=O)[C@@H](Cc1ccc(O)cc1)NC(=O)CCCCCNC(=O)CN1CCN(CC(=O)O)CCN(CC(=O)O)CCN(CC(=O)O)CC1)[C@@H](C)O)C(=O)NC1(C(=O)N[C@@H](Cc2c[nH]c3ccccc23)C(N)=O)CCN(C(=N)N)CC1` [Compound 271] ({DOTA-Ahx}-[dY][dW]NT[Bip][azaGly]L[Api(1-amidino)]W-NH2), the Ki was 10 to 100 nM.
